# Data as given in patent publication US7371555B2, “Polypeptides having α-H-α-amino acid amide racemase activity and nucleic acids encoding the same” (DSM IP Assets B.V., priority 2002, dated 2008).
# Columns and labels:
# [1] = system: E. coli clones with plasmid encoded A. nicotianae NCIMB 41126 α-H-α-amino acid amide racemase activity; assay: Confirmation of potential positive clones of the A. nicotianae NCIMB 41126 gene library; type: cell-based, Arthrobacter nicotianae NCIMB 41126; settings: 70 mM substrate, 10 μM pyridoxal-5-phosphate, 20 h at 30° C.
# Procedure: Of all 32 potential positive clones identified in the screening, material from the masterplates was used to inoculate 3 ml of liquid screening medium containing 50 mg/l kanamycin. After growth for 2 days at 30° C., cells were collected by centrifuging 2 ml of these cell cultures. Then the cell pellets were washed four times in 25 mM Tris-HCl buffer, pH 7.5. Subsequently, the cell pellets were resuspended in 100 μl substrate solution containing 70 mM of D-phenylalanine amide, or D-leucine amide, or D-valine amide in 50 mM Tris-HCl, pH 7.5 and 1 mM MnCl2. After incubation for 20 h at 30° C., the reactions were stopped by the addition of 100 μl of 0.15 M HCl, after which the reaction mixtures were analyzed by the HPLC method described in Example 1.
# Confirmation of both potential positive clones was done according to the protocol given in Example 3, with the exception that all 3 substrate solutions used contained 10 μM of pyridoxal-5-phosphate.
# [2] = system: lyophilized O. anthropi IA cells; assay: α-H-α-amino acid amide racemase activity of lyophilized O. anthropi IA cells; type: biochemical, Ochrobactrum anthropi IA; settings: approximately 72 hours at 40° C., 10 times diluted reaction mixture
# Procedure: O. anthropi IA cells were cultivated in Medium A containing DL-α-amino-ε-caprolactam (2 g/l) as sole nitrogen source. After incubation at 28° C. and 200 rpm for three days (OD620 nm=4.7), cells were harvested by centrifugation, washed in 20 mM HEPES-NaOH buffer of pH 7.7 and lyophilized.
# The assay mixture consisted of 10 mM HEPES-NaOH buffer (pH 7.7) containing toluene (2,5 v/v %), pyridoxal-5-phosphate (20 μM), D- or L-leucine amide (2.5 m %) and in some cases EDTA (20 mM). Per assay 150 mg of lyophilized cells were used. Chemical blanks (with the assay mixture without the O. anthropi IA cells) were used as a negative control. All reaction mixtures (including the blanks) were incubated for approximately 72 hours at 40° C. before the reaction was stopped by the addition of 9 volumes of 1 M H3PO4. Finally, the reaction mixtures were analyzed by HPLC to determine the concentrations of D- and L-leucine amide and of D- and L-leucine. o-Phthaldehyde in combination with D-3-mercapto-2-methylpropionic acid was used in this HPLC method as a chiral reagent for the enantioseparation of these amino compounds (Duchateau, et al., J. Chromatogr. (1992) 623:237-245).
# In a number of reactions EDTA was added to inhibit L- and/or D-specific amidase(s) present in the O. anthropi IA cells.
# Without EDTA, amidases convert the substrate and/or product α-H-α-amino acid amides into α-H-α-amino acids thereby preventing direct detection of the other α-H-α-amino acid amide enantiomer as racemization product. […] Formation of L-leucine from D-leucine amide could not be detected in the chemical blank.
# [3] = system: α-H-α-amino acid amide racemase from Ochrobactrum anthropi IA; assay: Substrate specificity, CFE from E. coli TOP10/pKEC_AZAR_3 (Example 7); type: biochemical; settings: relative to the activity towards D-leucine amide; 75 mM substrate, 20 mM EDTA, pH 8.0, 37° C.
# Procedure: Two pre-cultures of E. coli TOP10/pKEC_AZAR—3 (see Example 4) were prepared by inoculation of 2 erlenmeyer flasks with 100 ml of 2*TY medium (10 g/l Yeast extract, 16 g/l Tryptone, 5 g/l NaCl) containing 50 mg/l of kanamycin with 10 μl of a glycerol stock per flask. After overnight cultivation at 28° C. and 200 rpm, the pre-cultures were pooled, and subsequently used to inoculate 2 erlenmeyer flasks each containing 1 l of the same medium. Also these flasks were cultivated at 28° C. and 200 rpm for 16-18 h. Cells were harvested by centrifugation (15 min. at 6,200×g, 4° C.), washed with 20 mM HEPES-NaOH, pH 7.5, pooled, weighed, and resuspended in a solution containing 20 mM HEPES-NaOH, pH 7.5, 20 μM pyridoxal-5-phosphate, and 1.3 mM of dithiothreitol in a 1:3 ratio of wet weight cells to solution. Then, cells were disintegrated by 10 min. sonification with a Soniprep 150 of MSE operated at maximum amplitude using time intervals of 10 sec. (i.e., 10 sec. sonification, 10 sec. cooling) and cooling in ice/acetone. Particles were removed by centrifugation, after which sucrose was added to the cell free extract to a final concentration of 0.25 M. The resulting cell free extract (CFE) was stored in aliquots at −20° C. E. coli TOP10/pBAD/Myc-HisC (Invitrogen) cells were treated in exactly the same way and served as negative control.
# The substrate specificity of the α-H-α-amino acid racemase from O. anthropi IA was determined by measuring the racemase activity of the above-mentioned CFE towards a number of enantiomerically pure amino acid amides. Each reaction mixture of 10 ml (including the CFE) contained 50 mM HEPES-NaOH, pH 8.0, 20 μM pyridoxal-5-phosphate, 0.4 mg/ml BSA, 1 mM dithiothreitol, 20 mM EDTA and 75 mM of one of the amino acid amides tested. Reactions were started by the addition of 1 ml of the thawed CFE of E. coli TOP10/pKEC_AZAR—3 or E. coli TOP10/pBAD/Myc-HisC (blank) and were incubated at 37° C. At regular time intervals samples of 1 ml were taken and transferred to vials containing 1 ml of 1M H3PO4 to stop the reaction. After sufficient dilution of the samples in 0.4 M borate buffer pH 9.4, the mixtures obtained were analyzed using HPLC to determine the exact concentrations of the two amino acid and two amino acid amide enantiomers according to the following method.
# The initial activity for the different substrates tested was calculated from the linear parts of the progress curves, in which the conversion was plotted against the reaction time. Use of the linear part of the progress curves secured that only samples taken at time points at which the substrate concentration was still sufficiently high, were used for the calculations. The conversion was calculated by dividing the amount of amino acid and amino acid amide formed via the racemase reaction (so with the opposite stereochemistry compared to the substrate molecule) by the total amount of two amino acid enantiomers and the two amino acid amide enantiomers.
smiles,measurement,setting,value
CC(C)C[C@@H](N)C(N)=O [D-leucine amide],conversion of D-amide into L-acid,[1],significantly converted
same,D-leucine,[2]; with EDTA (20 mM),0.007 m %
same,D-leucine amide,[2]; with EDTA (20 mM),0.24 m %
same,L-leucine,[2]; with EDTA (20 mM),0.008 m %
same,L-leucine amide,[2]; with EDTA (20 mM),0.032 m %
same,D-leucine,[2]; without EDTA,0.015 m %
same,D-leucine amide,[2]; without EDTA,0.22 m %
same,L-leucine,[2]; without EDTA,0.044 m %
same,L-leucine amide,[2]; without EDTA,<0.001 m %
same,Rel. initial activity,[3],100%
